In ChEMBL document CHEMBL3576839, “N-Aryl azacycles as novel sodium channel blockers” (Bioorg Med Chem Lett, 2015):
Converted amounts (≈) assume the structure as drawn.

Assays:
[1] = Kinetic solubility of the compound at pH 1.2; assay type: physicochemical; settings: buffer, read-out: Kinetic_solubility
[2] = Kinetic solubility of the compound at pH 6.8; assay type: physicochemical; settings: buffer, read-out: Kinetic_solubility
[3] = target: hERG (KCNH2) (Homo sapiens, UniProt Q12809); test: Inhibition of human ERG at 1 uM
[4] = test system: MDR1; test: Apparent permeability from apical to basolateral side in MDCK cells expressing MDR1; assay type: ADME, cell-based, Canis lupus familiaris; settings: dog
[5] = test system: MDR1; test: Apparent permeability from basolateral to apical side in MDCK cells expressing MDR1; assay type: ADME, cell-based, Canis lupus familiaris; settings: dog
[6] = test system: MDR1; test: Efflux ratio of permeability from basolateral to apical side over apical to basolateral side in MDCK cells expressing MDR1; assay type: ADME, cell-based, Canis lupus familiaris; settings: dog
[7] = Tmax in Sprague-Dawley rat at 3 mg/kg, po; assay type: ADME, organism-based; settings: in vivo
[8] = Cmax in Sprague-Dawley rat at 3 mg/kg, po; assay type: ADME, organism-based; parameters: dose 3 mg/kg, route oral; settings: in vivo
[9] = AUC in Sprague-Dawley rat at 3 mg/kg, po; assay type: ADME, organism-based; settings: in vivo
[10] = target: T1, Sodium channel protein type 9 subunit alpha (Homo sapiens, UniProt Q15858); test: Inhibition of Nav1.7 (unknown origin) expressed in CHO cells after 45 mins by FLIPR assay; assay type: cell-based
[11] = target: T1, Sodium channel protein type 9 subunit alpha; test: Inhibition of Nav1.7 (unknown origin) by electrophysiological assay

T1 sequence (Q15858 whole entry): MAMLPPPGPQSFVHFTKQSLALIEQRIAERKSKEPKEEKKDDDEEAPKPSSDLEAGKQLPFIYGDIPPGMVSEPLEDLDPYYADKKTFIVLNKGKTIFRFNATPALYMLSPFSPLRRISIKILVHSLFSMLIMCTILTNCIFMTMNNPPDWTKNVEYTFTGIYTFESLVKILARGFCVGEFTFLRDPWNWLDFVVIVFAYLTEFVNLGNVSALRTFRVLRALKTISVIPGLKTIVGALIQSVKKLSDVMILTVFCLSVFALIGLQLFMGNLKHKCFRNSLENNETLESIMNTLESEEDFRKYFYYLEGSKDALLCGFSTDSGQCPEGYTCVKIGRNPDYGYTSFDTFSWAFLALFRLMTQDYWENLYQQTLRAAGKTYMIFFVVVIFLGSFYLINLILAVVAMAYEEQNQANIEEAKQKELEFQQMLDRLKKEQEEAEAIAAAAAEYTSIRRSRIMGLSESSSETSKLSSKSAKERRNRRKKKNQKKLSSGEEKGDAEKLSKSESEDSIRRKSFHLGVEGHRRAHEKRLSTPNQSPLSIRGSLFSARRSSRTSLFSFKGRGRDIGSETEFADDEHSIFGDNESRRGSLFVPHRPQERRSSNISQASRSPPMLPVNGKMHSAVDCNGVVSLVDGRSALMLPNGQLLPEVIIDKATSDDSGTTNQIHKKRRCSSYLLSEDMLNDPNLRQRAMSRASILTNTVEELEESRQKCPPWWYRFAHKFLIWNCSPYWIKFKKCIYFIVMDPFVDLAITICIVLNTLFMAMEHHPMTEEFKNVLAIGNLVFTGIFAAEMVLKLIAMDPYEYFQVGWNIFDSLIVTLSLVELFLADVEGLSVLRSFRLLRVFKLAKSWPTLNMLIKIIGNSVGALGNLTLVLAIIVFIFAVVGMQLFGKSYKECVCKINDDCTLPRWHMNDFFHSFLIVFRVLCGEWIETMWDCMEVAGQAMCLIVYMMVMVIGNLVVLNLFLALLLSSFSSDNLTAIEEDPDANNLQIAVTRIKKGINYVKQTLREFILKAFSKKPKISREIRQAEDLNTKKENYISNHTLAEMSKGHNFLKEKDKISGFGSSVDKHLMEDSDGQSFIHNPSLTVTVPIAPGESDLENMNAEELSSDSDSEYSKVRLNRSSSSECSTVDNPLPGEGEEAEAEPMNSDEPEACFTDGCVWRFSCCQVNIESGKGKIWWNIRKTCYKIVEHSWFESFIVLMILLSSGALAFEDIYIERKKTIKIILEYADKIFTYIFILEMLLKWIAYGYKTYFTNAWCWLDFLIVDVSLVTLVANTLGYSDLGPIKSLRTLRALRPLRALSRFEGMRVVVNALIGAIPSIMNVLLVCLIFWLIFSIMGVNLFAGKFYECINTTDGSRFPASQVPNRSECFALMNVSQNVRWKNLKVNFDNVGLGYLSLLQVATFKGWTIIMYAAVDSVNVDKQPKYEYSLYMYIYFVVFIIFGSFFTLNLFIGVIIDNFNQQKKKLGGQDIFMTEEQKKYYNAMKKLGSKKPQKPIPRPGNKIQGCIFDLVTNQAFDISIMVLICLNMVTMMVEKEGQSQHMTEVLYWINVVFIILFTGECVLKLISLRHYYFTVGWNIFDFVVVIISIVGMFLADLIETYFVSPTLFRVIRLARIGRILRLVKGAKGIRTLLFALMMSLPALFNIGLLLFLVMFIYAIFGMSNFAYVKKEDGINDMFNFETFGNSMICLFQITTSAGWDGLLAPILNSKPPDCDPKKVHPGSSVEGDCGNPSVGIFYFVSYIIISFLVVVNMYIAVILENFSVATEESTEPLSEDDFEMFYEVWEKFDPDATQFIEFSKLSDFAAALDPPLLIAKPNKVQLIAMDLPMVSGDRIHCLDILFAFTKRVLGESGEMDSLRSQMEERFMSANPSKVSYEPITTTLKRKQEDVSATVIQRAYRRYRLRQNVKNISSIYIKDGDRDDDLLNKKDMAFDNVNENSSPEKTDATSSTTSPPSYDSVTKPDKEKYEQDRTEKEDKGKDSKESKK
Sequence of hERG (KCNH2) (Q12809 whole entry): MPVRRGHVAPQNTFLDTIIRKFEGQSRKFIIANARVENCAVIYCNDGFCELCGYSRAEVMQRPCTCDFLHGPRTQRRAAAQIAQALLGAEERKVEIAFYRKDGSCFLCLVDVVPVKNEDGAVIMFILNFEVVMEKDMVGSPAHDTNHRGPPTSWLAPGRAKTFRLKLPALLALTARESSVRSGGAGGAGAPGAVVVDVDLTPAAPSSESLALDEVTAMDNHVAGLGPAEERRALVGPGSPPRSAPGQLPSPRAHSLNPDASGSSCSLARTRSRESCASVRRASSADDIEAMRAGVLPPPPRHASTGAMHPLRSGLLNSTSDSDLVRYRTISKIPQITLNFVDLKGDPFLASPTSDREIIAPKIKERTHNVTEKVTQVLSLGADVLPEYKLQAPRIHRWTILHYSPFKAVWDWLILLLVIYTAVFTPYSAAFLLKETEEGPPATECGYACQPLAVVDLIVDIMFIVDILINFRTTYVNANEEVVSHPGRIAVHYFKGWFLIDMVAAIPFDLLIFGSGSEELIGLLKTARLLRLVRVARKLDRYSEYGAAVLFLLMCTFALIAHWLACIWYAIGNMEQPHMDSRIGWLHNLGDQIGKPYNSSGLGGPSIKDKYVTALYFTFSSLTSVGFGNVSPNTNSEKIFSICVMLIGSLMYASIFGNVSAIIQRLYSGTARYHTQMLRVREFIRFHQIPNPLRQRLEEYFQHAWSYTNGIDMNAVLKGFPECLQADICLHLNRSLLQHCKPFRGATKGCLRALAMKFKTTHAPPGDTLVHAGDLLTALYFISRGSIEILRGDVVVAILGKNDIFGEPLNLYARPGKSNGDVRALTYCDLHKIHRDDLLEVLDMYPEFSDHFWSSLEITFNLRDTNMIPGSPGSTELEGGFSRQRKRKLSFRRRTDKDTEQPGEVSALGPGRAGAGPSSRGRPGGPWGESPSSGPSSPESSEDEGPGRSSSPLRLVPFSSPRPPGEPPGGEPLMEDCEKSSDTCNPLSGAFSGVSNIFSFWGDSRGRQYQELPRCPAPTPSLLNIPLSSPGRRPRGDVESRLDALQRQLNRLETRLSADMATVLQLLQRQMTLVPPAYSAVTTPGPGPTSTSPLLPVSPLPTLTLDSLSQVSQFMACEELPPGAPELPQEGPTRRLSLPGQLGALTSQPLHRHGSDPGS

CC(=O)N1CCN(c2ccc(C(F)(F)F)cc2)c2ccc(-c3cccc([C@H](O)CO)n3)cc2C1
solubility kinetic [1]: 80 µM (≈ 37.7 µg/mL)
solubility kinetic [2]: 39 µM (≈ 18.4 µg/mL)
inhibition at 1 µM [3]: 13.9%
Papp A→B [4]: 0.9 ×10⁻⁶ cm/s
Papp B→A [5]: 28.3 ×10⁻⁶ cm/s
efflux ratio [6]: 31
Tmax [7]: 2.5 h
Cmax [8]: 94 ng/mL
AUC [9]: 562 ng·h/mL

CC(=O)N1CCN(c2ccc(C(F)(F)F)cc2)c2ccc(-c3cccc(C(N)=O)n3)cc2C1
IC50 [10]: 380 nM

NC(=O)c1cccc(-c2ccc3c(c2)OCCCN3c2ccc(C(F)(F)F)cc2)n1
solubility kinetic [1]: 0.08 µM (≈ 0.0331 µg/mL)
solubility kinetic [2]: 0.08 µM (≈ 0.0331 µg/mL)

NC(=O)c1cccc(-c2ccc3c(c2)CNCCN3c2ccc(C(F)(F)F)cc2)n1
solubility kinetic [1]: 18 µM (≈ 7.42 µg/mL)
solubility kinetic [2]: 0.59 µM (≈ 0.243 µg/mL)

NC(=O)c1cccc(-c2ccc3c(c2)CCCCN3c2ccc(C(F)(F)F)cc2)n1
solubility kinetic [1]: 0.03 µM (≈ 0.0123 µg/mL)
solubility kinetic [2]: 0.02 µM (≈ 0.00823 µg/mL)

CS(=O)(=O)N1CCN(c2ccc(C(F)(F)F)cc2)c2ccc(-c3cccc([C@H](O)CO)n3)cc2C1
Ki [11]: 230 nM

NC(=O)N1CCN(c2ccc(C(F)(F)F)cc2)c2ccc(-c3cccc([C@H](O)CO)n3)cc2C1
solubility kinetic [1]: 66 µM (≈ 31.2 µg/mL)
solubility kinetic [2]: 1 µM (≈ 0.472 µg/mL)
inhibition at 1 µM [3]: 22.6%
Tmax [7]: 2.5 h
Cmax [8]: 21 ng/mL
AUC [9]: 133 ng·h/mL

CNC(=O)CN1CCN(c2ccc(C(F)(F)F)cc2)c2ccc(-c3cccc([C@H](O)CO)n3)cc2C1
Ki [11]: 440 nM
